Changes are numbered by the printed parent chain. Where two headings read alike, the source gives them in different places.
Assays:
Test in all cases: URAT1 uric acid transport activity assay
Type in all cases: cell-based, human/rat
r-h TM1-C URAT1 chimera = biological target: T1, r-h TM1-C URAT1 chimera (Rattus norvegicus, UniProt Q3ZAV1, L29M/N35S/P27S/T32C/V31L)
T1 sequence (Q3ZAV1 1-553 P27S/L29M/V31L/T32C/N35S): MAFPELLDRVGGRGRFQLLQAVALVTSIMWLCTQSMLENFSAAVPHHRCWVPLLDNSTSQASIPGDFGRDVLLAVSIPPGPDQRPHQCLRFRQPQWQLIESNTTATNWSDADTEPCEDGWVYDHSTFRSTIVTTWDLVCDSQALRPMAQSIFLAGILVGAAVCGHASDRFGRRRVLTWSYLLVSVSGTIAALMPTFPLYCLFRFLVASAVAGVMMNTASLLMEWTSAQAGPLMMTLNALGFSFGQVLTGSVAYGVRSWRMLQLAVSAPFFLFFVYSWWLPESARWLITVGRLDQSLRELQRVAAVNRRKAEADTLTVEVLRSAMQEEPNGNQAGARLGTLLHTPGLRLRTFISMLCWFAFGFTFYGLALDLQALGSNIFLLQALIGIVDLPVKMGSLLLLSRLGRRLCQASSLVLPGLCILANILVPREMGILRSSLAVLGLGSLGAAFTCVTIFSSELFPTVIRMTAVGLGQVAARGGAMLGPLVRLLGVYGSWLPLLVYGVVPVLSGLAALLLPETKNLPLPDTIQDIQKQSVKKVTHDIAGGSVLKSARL
From the text: (§1) hURAT1 (GenBank BC053348.1) and rURAT1 (NCBI NM_001034943.1) genes were purchased from Origene Technologies, Inc. and subcloned into pCMV6/neo using NotI, creating pCMV6/neo-hURAT1 and pCMV6/neo-rURAT1. Mutants were produced by polymerase chain reaction (PCR) or site-directed mutagenesis using the QuikChange Lightning Multi Site-Directed Mutagenesis Kit (Agilent Technologies). […] Detailed methods are provided in Supplementary Methods, and primers are listed in Supplementary Table 1. […] Residues in rURAT1 and hOAT1 that correspond to the residues in hURAT1 were identified from aligned protein sequences (Supplementary Fig. 1)[50].
(§2) DNA (10 μg) was mixed with 30 μl of DreamFect Gold (Boca Scientific) in 2 ml OptiMem (Life Technologies). After 20 minutes, 18 ml of media containing 2 × 10^7 cells in suspension was added and mixed, and 200 μl per well were plated onto white clear-bottomed poly-D-lysine coated 96-well plates (BD Biosciences). The cells were assayed the following day.
(§3) Compounds were serially diluted into assay buffer and added to the cells for 5 minutes prior to addition of radiolabelled uric acid substrate. URAT1-expressing cells were incubated with 100 μM ^14C-uric acid for 10 minutes. […] Each treatment was measured in triplicate.
(§4) Unlabelled uric acid was prepared at a 20 mM stock just prior to use in a solution containing 20 mM dibasic potassium phosphate and 20 mM potassium hydroxide.
(§5) Nonlinear regression analyses using GraphPad Prism software were used to calculate the potency of URAT1 inhibitors (IC50 values) from log (inhibitor) versus response - variable slope (four parameters) equations. Statistical significance was assessed using Student’s unpaired t-tests.

r-h TM7 URAT1 chimera = biological target: T2, r-h TM7 URAT1 chimera (Rattus norvegicus, UniProt Q3ZAV1, F351C/M354T/Y365F)
T2 construct: expressed in transfected cells; host or cells: HEK-293T
T2 sequence (Q3ZAV1 1-553 F351C/M354T/Y365F): T1 sequence (Q3ZAV1 1-553 P27S/L29M/V31L/T32C/N35S) with S27P, M29L, L31V, C32T, S35N, F351C, M354T, Y365F
From the text: as §1, §2, §3, §4, §5

r-h TM11 URAT1 chimera = biological target: T3, r-h TM11 URAT1 chimera (Rattus norvegicus, UniProt Q3ZAV1, M481I/V474M)
T3 sequence (Q3ZAV1 1-553 V474M/M481I): T1 sequence (Q3ZAV1 1-553 P27S/L29M/V31L/T32C/N35S) with S27P, M29L, L31V, C32T, S35N, V474M, M481I
From the text: as §1, §2, §3, §4, §5

CCc1oc2ccccc2c1C(=O)c1cc(Br)c(O)c(Br)c1 [benzbromarone]
IC50 (r-h TM1-C URAT1 chimera): 12 ± 0.78 µM
IC50 (r-h TM7 URAT1 chimera): 5.7 ± 0.25 µM
IC50 (r-h TM11 URAT1 chimera): 12 ± 0.48 µM

O=C1C(CC[S+]([O-])c2ccccc2)C(=O)N(c2ccccc2)N1c1ccccc1 (stereo not drawn) [sulfinpyrazone]
IC50 (r-h TM1-C URAT1 chimera; r-h TM1-C, HEPES pH 7.3, 100 μM 14C-uric acid, read-out: IC50 (uric acid transport)): 25 ± 6.7 µM
IC50 (r-h TM7 URAT1 chimera; r-h TM7, HEPES pH 7.3, 100 μM 14C-uric acid, read-out: IC50 (uric acid transport)): 243 ± 22 µM
IC50 (r-h TM11 URAT1 chimera; r-h TM11, HEPES pH 7.3, 100 μM 14C-uric acid, read-out: IC50 (uric acid transport)): 342 ± 32 µM

O=C(O)CSc1nnc(Br)n1-c1ccc(C2CC2)c2ccccc12 [lesinurad, 2-((5-bromo-4-(4-cyclopropylnaphthalen-1-yl)-4H-1,2,4-triazol-3-yl)thio)acetic acid]
IC50 (r-h TM1-C URAT1 chimera; r-h TM1-C, MES pH 5.5, 100 μM 14C-uric acid, read-out: IC50 (uric acid transport)): 17 ± 2 µM
IC50 (r-h TM7 URAT1 chimera; r-h TM7, MES pH 5.5, 100 μM 14C-uric acid, read-out: IC50 (uric acid transport)): 6.9 ± 0.99 µM
IC50 (r-h TM11 URAT1 chimera; r-h TM11, MES pH 5.5, 100 μM 14C-uric acid, read-out: IC50 (uric acid transport)): 62 ± 3.6 µM

From paper PMC5054527, “Mechanism of high affinity inhibition of the human urate transporter URAT1” (Scientific Reports, 2016)
